For data set [1], the target named is benzodiazepine receptor (^3 H-diazepam binding sites, rat brain membranes).
Description: This efficacy is measured by Ki values in micro moles calculated by using the equation:
C=the concentration of ^3 H-diazepam,
KD =the affinity constant=2,74 μM, and
IC50 =the concentration causing 50% inhibition of ^3 H-diazepam binding.
A short description of data set [2]: Acute toxicity in mice (LD50). The note with it: mouse, in vivo. It counts as in vivo. The source says:
(§1) The following Table 2 contains values already given in U.S. Pat. No. 4,064,255 and supplies additional values obtained according to the same procedure.

The next data set has as its system Mice. The data set is described as follows: Acute toxicity in mice (LD50). It is filed as in vivo.
Description: as §1

Where [3] appears, read: iv, I.V., read-out: Acute toxicity LD50, I.V.
[4] abbreviates: po, orally, read-out: Acute toxicity LD50, orally.

Read-outs that look alike come from different tables or passages of the source.

The Ki is the equilibrium dissociation constant of an inhibitor or competing ligand from its target. Low values mean higher affinity, high ones lower affinity. For orientation: LD50 means the dose at which mortality reaches 50%. Take `O=C(CC1CCNCC1)c1c[nH]c2ccccc12` [Example 1, Indolyl-3-(piperidyl-4-methyl)ketone]: in data set [1], the Ki amounted to 43 µM. Besides, the LD50 in data set [2] (setting [3]) was 47 mg/kg; in data set [2] (setting [4]), 300 to 900 mg/kg.
For `COc1ccc2[nH]cc(CCC3CCNCC3)c2c1` [Example 8, [(Methoxy-5 indolyl-3)-2 ethyl]-4 piperidine], the Ki in data set [1] was 40 µM. Besides, the results for the LD50 in data set [2] (setting [3]) and in data set [2] (setting [4]) were 41 mg/kg and 675 mg/kg, respectively.
In data set [1], `Cn1cc(CCC2CCNCC2)c2ccccc21` [Example 9, [(Methyl-1 indolyl-3)-2 ethyl]-4 piperidine] yielded a Ki of 90 µM. For the same molecule, in the data set on Mice, the “Acute toxicity LD50, I.V.” value was 44 mg/kg and the “Acute toxicity LD50, orally” value came to 225 mg/kg.
The molecule `c1ccc2c(CCC3CCNCC3)c[nH]c2c1` [Example 10, [(Indolyl-3)-2 ethyl]-4 piperidine] gave a Ki in data set [1] of 64 µM. Besides, in the data set on Mice, the “Acute toxicity LD50, I.V.” value was 60 mg/kg and the “Acute toxicity LD50, orally” value worked out at 600 mg/kg.
For `c1ccc2c(CC3CCNCC3)c[nH]c2c1` [Example 11, (Indolyl-3 methyl)-4 piperidine] the same measures were 90 µM, 57 mg/kg and 225 mg/kg.
In turn, `Clc1ccc2[nH]cc(CCC3CCNCC3)c2c1` [Example 12, [(Chloro-5 indolyl-3)-2 ethyl]-4 piperidine] yielded a Ki in data set [1] of 37 µM. The LD50 was 85 mg/kg in data set [2] (setting [3]) and 625 mg/kg in data set [2] (setting [4]).
For `c1ccc2c(CCCC3CCNCC3)c[nH]c2c1` [Example 13, [(Indolyl-3)-3 propyl]-4 piperidine] the same measures were 70 µM, 29 mg/kg and 600 mg/kg.
Take `c1ccc(Cn2cc(CCC3CCNCC3)c3ccccc32)cc1` [Example 14, [(Benzyl-1 indolyl-3)-2 ethyl]-4 piperidine]: the Ki in data set [1] was 33 µM. The LD50 in data set [2] (setting [3]) was 33 mg/kg; in data set [2] (setting [4]) it was 525 mg/kg.

Values taken from patent US4208417A, “Indole derivatives and their use as anxiolytics” (Pharmindustrie, priority 1978, dated 1980).
